Experimental data as given in PMC10341549, “Inhibitory Investigations of Acyl-CoA Derivatives against Human Lipoxygenase Isozymes” (International Journal of Molecular Sciences, 2023).
“Also recorded” adds a separate entry of the source.

Assays:
Type in all cases: biochemical
h15-LOX-1 [1] = target: T1, h15-LOX-1 (Homo sapiens, UniProt P16050); test: Substrate activity and kinetic parameters with h15-LOX-1; details: acyl-CoAs tested at 70 µM, change in absorbance at 234 nm
T1 construct: His tag; made in house
T1 sequence (P16050 1-662): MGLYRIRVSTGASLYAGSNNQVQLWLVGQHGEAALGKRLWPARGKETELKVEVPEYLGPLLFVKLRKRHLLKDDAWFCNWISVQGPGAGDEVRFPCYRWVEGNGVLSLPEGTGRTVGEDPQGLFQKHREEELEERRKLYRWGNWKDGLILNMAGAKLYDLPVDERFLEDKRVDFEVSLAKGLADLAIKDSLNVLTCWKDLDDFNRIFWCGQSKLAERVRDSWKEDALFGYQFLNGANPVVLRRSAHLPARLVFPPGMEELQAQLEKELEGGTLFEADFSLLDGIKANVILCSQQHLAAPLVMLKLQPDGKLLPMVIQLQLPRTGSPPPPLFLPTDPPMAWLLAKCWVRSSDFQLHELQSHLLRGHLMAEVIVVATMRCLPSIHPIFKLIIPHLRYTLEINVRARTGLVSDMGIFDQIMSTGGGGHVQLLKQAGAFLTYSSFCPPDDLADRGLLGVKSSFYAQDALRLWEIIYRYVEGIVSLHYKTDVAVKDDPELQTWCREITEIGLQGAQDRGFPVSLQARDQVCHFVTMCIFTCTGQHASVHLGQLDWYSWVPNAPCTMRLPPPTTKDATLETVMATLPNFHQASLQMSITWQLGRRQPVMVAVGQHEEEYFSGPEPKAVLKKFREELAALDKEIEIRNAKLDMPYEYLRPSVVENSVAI
Description: Considering that some of these acyl-CoAs could potentially be substrates for LOX isozymes, each acyl-CoA was tested at 70 µM against each LOX isozyme to establish the possibility of catalysis.
The same buffer as used to determine IC50 values for h5-LOX was used for product determination. Turnover was monitored by absorbance at 234 nm.

h15-LOX-1 [2] = target: T1, h15-LOX-1; test: as above
h15-LOX-2 = target: T2, h15-LOX-2 (Homo sapiens, UniProt O15296); test: Kinetic investigation of oleoyl-CoA (18:1) inhibition of h15-LOX-2
T2 construct: His tag; made in house
T2 sequence (O15296 1-676): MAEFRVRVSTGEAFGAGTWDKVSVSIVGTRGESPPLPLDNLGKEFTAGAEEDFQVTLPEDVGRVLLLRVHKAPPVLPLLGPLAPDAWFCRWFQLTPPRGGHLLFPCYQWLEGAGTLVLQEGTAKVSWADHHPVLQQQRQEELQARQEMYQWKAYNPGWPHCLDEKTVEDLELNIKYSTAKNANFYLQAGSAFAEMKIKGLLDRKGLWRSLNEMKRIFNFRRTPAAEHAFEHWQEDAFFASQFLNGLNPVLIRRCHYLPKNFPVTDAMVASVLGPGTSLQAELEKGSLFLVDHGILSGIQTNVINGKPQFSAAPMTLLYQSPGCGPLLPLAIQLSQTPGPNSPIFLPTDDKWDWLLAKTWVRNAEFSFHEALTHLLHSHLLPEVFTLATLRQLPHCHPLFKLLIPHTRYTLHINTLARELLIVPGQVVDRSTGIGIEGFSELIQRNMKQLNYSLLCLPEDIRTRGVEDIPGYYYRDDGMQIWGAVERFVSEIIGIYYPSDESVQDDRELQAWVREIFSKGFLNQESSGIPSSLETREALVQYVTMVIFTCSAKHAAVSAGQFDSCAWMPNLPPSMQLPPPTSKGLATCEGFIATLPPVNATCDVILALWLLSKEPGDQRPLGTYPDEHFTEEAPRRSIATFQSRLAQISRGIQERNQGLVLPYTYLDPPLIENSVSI
Description: (1) 1/v=(αKM/kcat)[([I]+Ki)/(β[I]+αKi)]×1/[S]+1/kcat×[([I]+αKi)/(β[I]+αKi)] (2) KM(app)=αKM[([I]+Ki)/[…]] (3) kcat/KM=(kcat/αKM)[(β[I]+αKi)/([I]+Ki)] (4) kcat=kcat[(β[I]+αKi)/([I]+αKi)]
These two parameters were then utilized to fit Equation (3) relative to kcat/KM (app), which yielded a β value of 0.26 +/− 0.23 (Figure 2). Given the high error for the β value, β was also determined by applying the values for α and Ki from the KM (app) plot to Equation 4 and fitted to the kcat data (Figure 3). This fit yielded a β value of 0.30 +/− 0.07, consistent with the Equation 3 fit but with a lower error value. These kinetic values indicate hyperbolic allostery, α > 1 (K-type inhibition) and β < 1 (V-type inhibition), with the kinetic change being equally observed in both KM (α = 3.2 +/− 1) and kcat (β = 0.30 +/− 0.07). […] It should be noted that the Ki values from our hyperbolic fits (82 +/− 70 nM) were dramatically lower than those determined from IC50 measurements (620 ± 60 nM), which is consistent with the more accurate nature of the hyperbolic fits relative to the IC50 fits, due to the oversimplification of the IC50 analysis.
The reactions were carried out in 25 mM HEPES buffer (pH 7.5), 0.01% Triton X-100. […] Reactions were performed at 22 °C in a 1 cm^2 quartz cuvette containing 2 mL of the according buffer for no longer than 2 min to avoid any cleavage of the acyl-coenzyme A. Using a Cary-UV Vis spectrophotometer, the fastest rates over 15 s intervals were recorded. Kinetic values were obtained by plotting the rate against the substrate concentration, followed by a hyperbolic saturation curve fit. The saturation curve fits were performed in triplicate and on separate days to ensure there was no bias. The equations used to find kinetic values were from previous studies.

[3] = h15-LOX-1, compared with published values [31]

Substrate activity with h15-LOX-1 (h15-LOX-1 [1])	Km (h15-LOX-1 [2]; as substrate of h15-LOX-1, 22 °C)	kcat (h15-LOX-1 [2]; as substrate of h15-LOX-1, 22 °C, listed as linoleoyl-CoA)	kcat (h15-LOX-1 [2]; as substrate of h15-LOX-1, 22 °C, listed as linoleoyl-CoA (18:2))	kcat fold less than free linoleic acid (h15-LOX-1 [2]; [3])	kcat/KM fold less than free linoleic acid (h15-LOX-1 [2]; [3])	β (the change in kcat), Equation 4 fit (h15-LOX-2; fit of kcat data)	β (the change in kcat), Equation 3 fit (h15-LOX-2; fit of kcat/KM (app))	Ki (h15-LOX-2; h15-LOX-2, substrate AA, pH 7.5, 22 °C, read-out: Ki (allosteric, hyperbolic fit of KM (app), Equation 2))	SMILES	Substrate activity with h15-LOX-1 (h15-LOX-1 [1]; listed as linoleoyl-CoA (18:2))	Type of inhibition of h15-LOX-2 (h15-LOX-2)
(Substrate)	12 µM	7.5 (0.4) s^−1	7.5 ± 0.4 s⁻¹	1.3 fold	7 fold				CCCCC/C=C\C/C=C\CCCCCCCC(=O)SCCNC(=O)CCNC(=O)[C@H](O)C(C)(C)COP(=O)(O)OP(=O)(O)OC[C@H]1O[C@@H](n2cnc3c(N)ncnc32)[C@H](O)[C@@H]1OP(=O)(O)O [Linoleoyl-CoA (18:2), linoleoyl-CoA]	substrates; also recorded: rapid substrate	
						0.30 +/− 0.07	0.26 +/− 0.23	82 nM	CCCCCCCC/C=C\CCCCCCCC(=O)SCCNC(=O)CCNC(=O)[C@H](O)C(C)(C)COP(=O)(O)OP(=O)(O)OC[C@H]1O[C@@H](n2cnc3c(N)ncnc32)[C@H](O)[C@@H]1OP(=O)(O)O [Oleoyl-CoA (18:1), oleoyl-coenzyme A (18:1)]		allosteric inhibition (i.e., partial inhibition)
